# From patent publication US4668664A (L'Oreal, priority 1985, dated 1987)
# Columns and labels:
# [1] = tested on: propionibacterium acnes P 37 strain; test: Minimal Inhibiting Concentration (MIC) by the dilution method, P 37 strain; assay type: cell-based; conditions: Cutibacterium acnes, P37STRAIN
# Text: (§1) This method is described and employed by G. A. Denys et al, Antimicrobial Agents and Chemotherapy (1983), 23, 335-337 and J. J. Leyden et al, J. Am. Acad. Dermatol. (1983) 8 (1) 41-5, and utilizes as the strain of propionibacterium acnes, the P 37 strain furnished by Cunliffe and Holland.
# [2] = tested on: P 37; test: IC 50 study (inhibiting concentration at 50%), P 37; assay type: cell-based, propionibacterium acnes; conditions: Cutibacterium acnes, 50% survivors at constant culture time, read-out: IC 50 (inhibiting concentration at 50%; column head printed MIC)
# [3] = tested on: P 37 strain; test: Growth inhibition zone, disc on gelose medium; assay type: cell-based, propionibacterium acnes; conditions: Cutibacterium acnes, 144 h; read-out: growth inhibition zone, total diameter
# Protocol: (§2) After display of a standardized inoculum (DO=1.8 to 450 nm) on gelose medium (RCM+furazolidone), in a Petri dish, a disc of 9 mm in diameter is deposited in its center.
# (§3) After 6 days at 36° C. in an anaerobic medium (GAS-PAK system, B.B.L.) a growth inhibition zone of the strain is clearly visible (total diameter=42 mm), the great majority of the colonies being situated at the periphery of the inhibition zone.
# [4] = tested on: P 37 E⊕; test: IC 50 study (inhibiting concentration at 50%), P 37 E⊕; assay type: cell-based, propionibacterium acnes; conditions: Cutibacterium acnes, read-out: IC 50 (inhibiting concentration at 50%; column head printed MIC)
# Text: (§4) (2) at 1 cm beyond the periphery of the inhibition zone the strains denominated P 37 E⊕ are retained.
# [5] = tested on: P 37 E⊖; test: IC 50 study (inhibiting concentration at 50%), P 37 E⊖; assay type: cell-based, propionibacterium acnes; conditions: Cutibacterium acnes, read-out: IC 50 (inhibiting concentration at 50%; column head printed MIC)
# [6] = tested on: P 37 E⊖ (resistant); test: Minimal Inhibiting Concentration (MIC) by the dilution method, resistant strain P 37 E⊖; assay type: cell-based, propionibacterium acnes; conditions: for MIC: Cutibacterium acnes, read-out: Minimal Inhibiting Concentration (MIC), P 37 E⊖ (resistant), dilution method; for relative activity on strain P 37 E⊖: in words, vs reference fatty esters / erythromycin
# Protocol: as §1, §2, §3
# On the other hand, at its interior a few colonies clearly appear.
# The two types of colonies are then retained by pulling away from the gelose medium (sterilized platinum loop): […]
# [7] = tested on: P 37 E⊕ (sensitive); test: Minimal Inhibiting Concentration (MIC) by the dilution method, sensitive strain P 37 E⊕; assay type: cell-based, propionibacterium acnes; conditions: Cutibacterium acnes
# Text: as §1, §2
# The two types of colonies are then retained by pulling away from the gelose medium (sterilized platinum loop):
# as §4
SMILES,MIC [6] [µg/mL],MIC [7] [µg/mL],also measured
"CC[C@H]1OC(=O)[C@H](C)[C@@H](O[C@H]2C[C@@](C)(OC)[C@@H](O)[C@H](C)O2)[C@H](C)[C@@H](O[C@@H]2O[C@H](C)C[C@H](N(C)C)[C@H]2O)[C@](C)(O)C[C@@H](C)C(=O)[C@H](C)[C@@H](O)[C@]1(C)O [Erythromycin, erythromycin A]",> 50,0.78,"MIC [1]: 0.78 µg/mL; IC50 [2]: 50 µg/mL; zone of inhibition at 50 µg/disc [3]: 42 mm; IC50 [4]: 5 µg/mL; IC50 [5]: ~100 µg/mL; Minimal Inhibiting Concentration (MIC) ([6]; P 37 E⊖ (resistant), dilution method): 50 µg/mL"
"CCCCC/C=C\C/C=C\C/C=C\C/C=C\CCCC(=O)O[C@H]1[C@H](O[C@@H]2[C@@H](C)[C@H](O[C@H]3C[C@@](C)(OC)[C@@H](O)[C@H](C)O3)[C@@H](C)C(=O)O[C@H](CC)[C@@](C)(O)[C@H](O)[C@@H](C)C(=O)[C@H](C)C[C@@]2(C)O)O[C@H](C)C[C@@H]1N(C)C [O--arachidonoyl-2', O-arachidonoyl-2' erythromycin A]",> 50,6.25,
"CCCCC/C=C/C/C=C/CCCCCCCC(=O)O[C@H]1[C@H](O[C@@H]2[C@@H](C)[C@H](O[C@H]3C[C@@](C)(OC)[C@@H](O)[C@H](C)O3)[C@@H](C)C(=O)O[C@H](CC)[C@@](C)(O)[C@H](O)[C@@H](C)C(=O)[C@H](C)C[C@@]2(C)O)O[C@H](C)C[C@@H]1N(C)C [O--linoelaidoyl-2', O-linoelaidoyl-2' erythromycin A]",100,25,relative activity on strain P 37 E⊖ [6]: less active
"CCCCC/C=C/C/C=C/CCCCCCCC(=O)O[C@H]1[C@H](C)O[C@@H](O[C@H]2[C@H](C)[C@@H](O[C@@H]3O[C@H](C)C[C@H](N(C)C)[C@H]3O)[C@](C)(O)C[C@@H](C)C(=O)[C@H](C)[C@@H](O)[C@](C)(O)[C@@H](CC)OC(=O)[C@@H]2C)C[C@@]1(C)OC [O--linoelaidoyl-4"", O-linoelaidoyl-4"" erythromycin A]",100,25,relative activity on strain P 37 E⊖ [6]: less active
"CCCCC/C=C\C/C=C\CCCCCCCC(=O)O[C@H]1[C@H](O[C@@H]2[C@@H](C)[C@H](O[C@H]3C[C@@](C)(OC)[C@@H](O)[C@H](C)O3)[C@@H](C)C(=O)O[C@H](CC)[C@@](C)(O)[C@H](O)[C@@H](C)C(=O)[C@H](C)C[C@@]2(C)O)O[C@H](C)C[C@@H]1N(C)C [O--linolenoyl-2', O-linoleoyl-2' erythromycin A]",16,4,
"CCCCC/C=C\C/C=C\CCCCCCCC(=O)O[C@H]1[C@H](C)O[C@@H](O[C@H]2[C@H](C)[C@@H](O[C@@H]3O[C@H](C)C[C@H](N(C)C)[C@H]3O)[C@](C)(O)C[C@@H](C)C(=O)[C@H](C)[C@@H](O)[C@](C)(O)[C@@H](CC)OC(=O)[C@@H]2C)C[C@@]1(C)OC [O--linoleoyl-4"", O-linoleoyl-4"" erythromycin A]",28,3.5,
CCCCCCCC/C=C\CCCCCCCC(=O)O[C@H]1[C@H](O[C@@H]2[C@@H](C)[C@H](O[C@H]3C[C@@](C)(OC)[C@@H](O)[C@H](C)O3)[C@@H](C)C(=O)O[C@H](CC)[C@@](C)(O)[C@H](O)[C@@H](C)C(=O)[C@H](C)C[C@@]2(C)O)O[C@H](C)C[C@@H]1N(C)C [O--oleoyl-2'],100,50,
CCCCCCCCCCCCCCCCCC(=O)O[C@H]1[C@H](O[C@@H]2[C@@H](C)[C@H](O[C@H]3C[C@@](C)(OC)[C@@H](O)[C@H](C)O3)[C@@H](C)C(=O)O[C@H](CC)[C@@](C)(O)[C@H](O)[C@@H](C)C(=O)[C@H](C)C[C@@]2(C)O)O[C@H](C)C[C@@H]1N(C)C [O--stearoyl-2'],> 50,< 1.56,
"CC/C=C\C/C=C\C/C=C\CCCCCCCC(=O)O[C@H]1[C@H](C)O[C@@H](O[C@H]2[C@H](C)[C@@H](O[C@@H]3O[C@H](C)C[C@H](N(C)C)[C@H]3O)[C@](C)(O)C[C@@H](C)C(=O)[C@H](C)[C@@H](O)[C@](C)(O)[C@@H](CC)OC(=O)[C@@H]2C)C[C@@]1(C)OC [O--α-linolenoyl-4"", O-α-linolenoyl-4"" erythromycin A]",37,4.5,
